One assay concerns the target human orexin 1 receptor (Homo sapiens (Human), UniProt O43613). The assay is described as follows: Human orexin 1 receptor radioligand binding (competitive). The conditions noted are these: CHO cells stably expressing human orexin 1 receptor; 4 nM radioligand; averages of 2-20 runs; read-out: hOX1 Ki. As to the method: (§1) The in vitro affinity of the compounds of the invention for the rat/human orexin 1 and human orexin 2 receptors was determined by competitive radioligand binding using [^3H](1-(5-(2-fluoro-phenyl)-2-methyl-thiazol-4-yl)-1-((S)-2-(5-phenyl-(1,3,4)oxadiazol-2-ylmethyl)-pyrrolidin-1-yl)-methanone) (Langmead et al., 2004) and [^3H]EMPA (n-ethyl-2[96-methoxy-pyridin-3-yl)-(toluene-2-sulfonyl)-amino]-N-pyridin-3-ylmethyl acetamide), respectively (Langmead et al., 2004, British Journal of Pharmacology 141:340-346; Malherbe et al., 2004, British Journal of Pharmacology 156:1326-41).
(§2) Data are analyzed using pc-Sandy macro and graphed on Graphpad Prism 5. For analysis, each concentration point is averaged from triplicate values and the averaged values are plotted on Graphpad Prism. The IC50 was determined by applying the following equation (GraphPad Prism 5.0, San Diego) for one site competition where X=log (concentration) and Y=specific binding. Top denotes the total [^3H]— (1-(5-(2-fluoro-phenyl)-2-methyl-thiazol-4-yl)-1-((S)-2-(5-phenyl-(1,3,4)oxadiazol-2-ylmethyl)-pyrrolidin-1-yl)-methanone) binding, bottom denotes the nonspecific [^3H]— (1-(5-(2-fluoro-phenyl)-2-methyl-thiazol-4-yl)-1-((S)-2-(5-phenyl-(1,3,4)oxadiazol-2-ylmethyl)-pyrrolidin-1-yl)-methanone) binding. Graphpad Prism calculates Ki value from IC50 and the pre-determined Kd values for [^3H]— (1-(5-(2-fluoro-phenyl)-2-methyl-thiazol-4-yl)-1-((S)-2-(5-phenyl-(1,3,4)oxadiazol-2-ylmethyl)-pyrrolidin-1-yl)-methanone) and [^3H]-EMPA. The Ki for each compound is then uploaded into 3DX. Each run comprises individual compounds in triplicate. The data in Table 1 and Table 2 represent averages from between 2-20 runs
(§3) Rat and Human Orexin 1 Receptor Radioligand Binding Studies
(§4) Human Embryonic Kidney 293 cells (HEK293) stably expressing rat orexin 1 receptor (Genebank accession number NM_001525) or Chinese ovary cells (CHO) stably expressing human orexin 1 receptor (Genebank accession number […]) were grown to confluency in DMEM (Hyclone, cat # SH30022), 10% FBS, 1× Pen/Strep, 1× sodium pyruvate, 10 mM HEPES, 600 μg/mL G418 and DMEM/F12 (Gibco, Cat #11039), 10% FBS, 1× Pen/Strep, 600 μg/mL G418 media, respectively on 150 cm^2 tissue culture plates, washed with 5 mM EDTA in PBS (HyClone Dulbecco's Phosphate Buffered Saline 1× with Calcium and Magnesium, Cat # SH30264.01, hereafter referred to simply as PBS) and scraped into 50 ml tubes. After centrifugation (2K×G, 5 min at 4° C.), the supernatant was aspirated and the pellets frozen and stored at −80° C. Cells were resuspended in PBS in the presence of 1 tablet of protease inhibitor cocktail (Roche, Cat. #11836145001) per 50 mL. […] Competition binding experiments in 96 well polypropylene plates were performed using [^3H]— (1-(5-(2-fluoro-phenyl)-2-methyl-thiazol-4-yl)-1-((S)-2-(5-phenyl-(1,3,4)oxadiazol-2-ylmethyl)-pyrrolidin-1-yl)-methanone) (Moraveck Corporation, specific activity=35.3 Ci/mmol), diluted to a 10 nM concentration in PBS (4 nM final). Compounds were solubilized in 100% DMSO (Acros Organics, Cat. #61042-1000) and tested over a range of 7 concentrations (from 0.1 nM to 10 μM). The final concentration of DMSO in the reactions is equal to or less than 0.1%. Total and nonspecific binding was determined in the absence and presence of 10 μM almorexant. The total volume of each reaction is 200 μL (20 μL of diluted compounds, 80 μL of [^3H]— (1-(5-(2-fluoro-phenyl)-2-methyl-thiazol-4-yl)-1-((S)-2-(5-phenyl-(1,3,4)oxadiazol-2-ylmethyl)-pyrrolidin-1-yl)-methanone) diluted in PBS and 100 μL of the cell suspension). Reactions were run for 60 min at room temperature and terminated by filtration through GF/C filter plates (PerkinElmer, Cat. #6005174) presoaked in 0.3% polyethylenimine using the cell harvester (PerkinElmer Filtermate). The plates were washed 3 times by aspirating 30 ml PBS through the plates. Plates were dried in 55° C. oven for 60 min, scintillation fluid was added, and the radioactivity was counted on a Topcount (Packard). […]

For another assay, the target named is rat orexin 1 receptor (Rattus norvegicus, UniProt P56718). The assay can be described thus: Rat orexin 1 receptor radioligand binding (competitive). The conditions noted are these: HEK293 cells stably expressing rat orexin 1 receptor; 4 nM radioligand; averages of 2-20 runs; read-out: rOX1 Ki. As to the method: as §1, §2, §3, §4
The target in the next assay is human orexin 2 receptor (Homo sapiens (Human), UniProt O43614). The assay is described as follows: Human orexin 2 receptor radioligand binding ([3H]-EMPA competition). Conditions: HEK293 stably expressing human orexin 2 receptor; 2 nM [3H]-EMPA; averages of 2-20 runs; read-out: hOX2 Ki. The essentials:
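Membranes-free whole HEK293 cells stably expressing human OX2 receptor incubated with [3H]-EMPA and compound (7 concentrations, 0.1 nM–10 μM, ≤0.1% DMSO) for 60 min at room temperature; nonspecific binding with 10 μM almorexant. Filtration and scintillation counting; one-site IC50 converted to Ki using predetermined Kd, triplicates averaged over 2-20 runs.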

The values below come from US9611262B2, “Substituted 2-azabicycles and their use as orexin receptor modulators” (JANSSEN PHARMACEUTICA NV, priority 2014, dated 2017).

What is called Ki is a dissociation constant, usually derived from enzyme kinetics or from competition with a known ligand.

human orexin 1 receptor, sequence (O43613 whole entry): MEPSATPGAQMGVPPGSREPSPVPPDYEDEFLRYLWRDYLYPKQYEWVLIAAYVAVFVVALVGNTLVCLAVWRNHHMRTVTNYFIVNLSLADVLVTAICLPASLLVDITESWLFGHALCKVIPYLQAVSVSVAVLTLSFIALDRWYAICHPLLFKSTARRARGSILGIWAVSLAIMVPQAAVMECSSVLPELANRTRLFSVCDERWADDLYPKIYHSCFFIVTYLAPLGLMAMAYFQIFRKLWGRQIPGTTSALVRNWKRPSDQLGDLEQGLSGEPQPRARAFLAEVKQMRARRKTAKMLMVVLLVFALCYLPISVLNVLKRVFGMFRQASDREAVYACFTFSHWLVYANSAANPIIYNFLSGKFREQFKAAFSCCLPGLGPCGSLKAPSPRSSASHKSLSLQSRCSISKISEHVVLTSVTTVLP
human orexin 2 receptor, sequence (O43614 whole entry): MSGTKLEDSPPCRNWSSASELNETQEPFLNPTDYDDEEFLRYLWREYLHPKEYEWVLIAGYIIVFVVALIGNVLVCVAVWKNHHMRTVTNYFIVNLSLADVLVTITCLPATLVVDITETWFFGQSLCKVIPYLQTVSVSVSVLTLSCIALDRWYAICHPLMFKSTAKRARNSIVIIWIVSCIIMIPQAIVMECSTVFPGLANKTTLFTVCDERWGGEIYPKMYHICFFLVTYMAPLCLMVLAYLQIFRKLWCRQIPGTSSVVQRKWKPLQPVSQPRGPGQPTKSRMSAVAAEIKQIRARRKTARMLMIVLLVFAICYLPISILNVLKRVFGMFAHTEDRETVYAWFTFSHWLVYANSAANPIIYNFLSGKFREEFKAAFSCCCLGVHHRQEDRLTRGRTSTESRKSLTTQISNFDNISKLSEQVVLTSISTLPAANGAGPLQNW

In the case of `CC1C2CC(Oc3ccc(C(F)(F)F)cn3)C(C2)N1C(=O)c1cccc(F)c1-c1ncco1` (racemic) [Example 12, (R/S)-(3-fluoro-2-(oxazol-2-yl)phenyl)(3-methyl-6-((5-(trifluoromethyl)pyridin-2-yl)oxy)-2-azabicyclo[2.2.1]heptan-2-yl)methanone], the inhibition constant (Ki) on human orexin 1 receptor and at rat orexin 1 receptor was 8 nM each time.
As for `CC1C2CC(Oc3ccc(C(F)(F)F)cn3)C(C2)N1C(=O)c1ccccc1-c1ncc(F)cn1` (racemic) [Example 19, (R/S)-(2-(5-fluoropyrimidin-2-yl)phenyl)(3-methyl-6-((5-(trifluoromethyl)pyridin-2-yl)oxy)-2-azabicyclo[2.2.1]heptan-2-yl)methanone], the Ki on human orexin 1 receptor stood at 29 nM; at rat orexin 1 receptor it was 10 nM.
Take `Cc1ccc(-c2ncccn2)c(C(=O)N2C(C)C3CC(Oc4cnc(C(F)(F)F)cn4)C2C3)n1` (racemic) [Example 44, (R/S)-(6-methyl-3-(pyrimidin-2-yl)pyridin-2-yl)(3-methyl-6-((5-(trifluoromethyl)pyrazin-2-yl)oxy)-2-azabicyclo[2.2.1]heptan-2-yl)methanone]: the Ki is 55 nM at human orexin 1 receptor and 71 nM at rat orexin 1 receptor.
The corresponding values for `CC(C)CC1C2CC(Oc3ccc(C(F)(F)F)cn3)C(C2)N1C(=O)c1ccccc1-n1nccn1` (racemic) [Example 207, (R/S)-[2-isobutyl-5-[[5-(trifluoromethyl)-2-pyridyl]oxy]-3-azabicyclo[2.2.1]heptan-3-yl]-[2-(triazol-2-yl)phenyl]methanone] are 45 nM and 51 nM.
In the case of `CCC1C2CC(Oc3ccc(C(F)(F)F)cn3)C(C2)N1C(=O)c1ccccc1-n1nccn1` (racemic) [Example 213, (R/S)-[2-ethyl-5-[[5-(trifluoromethyl)-2-pyridyl]oxy]-3-azabicyclo[2.2.1]heptan-3-yl]-[2-(triazol-2-yl)phenyl]methanone], the Ki at human orexin 1 receptor was 2 nM; at rat orexin 1 receptor it was 4 nM.
As for `C[C@@H]1[C@H]2C[C@@H](Oc3ccc(C(F)(F)F)cn3)[C@H](C2)N1C(=O)c1ccc(F)cc1-n1nccn1` (relative stereo) [Example 28, (4-fluoro-2-(2H-1,2,3-triazol-2-yl)phenyl)((1S*,3R*,4R*,6R*)-3-methyl-6-((5-(trifluoromethyl)pyridin-2-yl)oxy)-2-azabicyclo[2.2.1]heptan-2-yl)methanone], the figures for the Ki on human orexin 1 receptor and on rat orexin 1 receptor were 5 nM and 6 nM, respectively.
Take `COc1ccc(C(=O)N2[C@H](C)[C@H]3C[C@@H](Oc4ccc(C(F)(F)F)cn4)[C@@H]2C3)c(-n2nccn2)c1` (relative stereo) [Example 31, (4-methoxy-2-(2H-1,2,3-triazol-2-yl)phenyl)((1S*,3R*,4R*,6R*)-3-methyl-6-((5-(trifluoromethyl)pyridin-2-yl)oxy)-2-azabicyclo[2.2.1]heptan-2-yl)methanone]: the Ki on human orexin 1 receptor and on rat orexin 1 receptor was 6 nM each time.
`Cc1cnc(C(=O)N2[C@H](C)[C@H]3C[C@@H](Oc4ccc(C(F)(F)F)cn4)[C@@H]2C3)c(-c2ncccn2)c1` (relative stereo) [Example 35, (5-methyl-3-(pyrimidin-2-yl)pyridin-2-yl)((1S*,3R*,4R*,6R*)-3-methyl-6-((5-(trifluoromethyl)pyridin-2-yl)oxy)-2-azabicyclo[2.2.1]heptan-2-yl)methanone]: the Ki worked out at 7 nM at human orexin 1 receptor and 4 nM at rat orexin 1 receptor.
For the compound `C[C@@H]1[C@H]2C[C@@H](Oc3ccc(C(F)(F)F)cn3)[C@H](C2)N1C(=O)c1ccccc1-c1cccc(F)n1` [Example 173, [2-(6-fluoro-2-pyridyl)phenyl]-[(1R,2R,4S,5R)-2-methyl-5-[[5-(trifluoromethyl)-2-pyridyl]oxy]-3-azabicyclo[2.2.1]heptan-3-yl]methanone], the Ki on human orexin 1 receptor was 5 nM; at human orexin 2 receptor, 343 nM.
As for `C[C@@H]1[C@H]2C[C@@H](Oc3ccc(C(F)(F)F)cn3)[C@H](C2)N1C(=O)c1ccc(OCCF)cc1-n1nccn1` [Example 202, [4-(2-fluoroethoxy)-2-(triazol-2-yl)phenyl]-[(1R,2R,4S,5R)-2-methyl-5-[[5-(trifluoromethyl)-2-pyridyl]oxy]-3-azabicyclo[2.2.1]heptan-3-yl]methanone], the Ki is greater than 10000 nM on human orexin 2 receptor and 196 nM on rat orexin 1 receptor.
For the compound `C[C@@H]1[C@H]2C[C@@H](Oc3ccc(C(F)(F)F)cn3)[C@H](C2)N1C(=O)c1cc2ccccc2nc1OCCO` [Example 203, [2-(2-hydroxyethoxy)-3-quinolyl]-[(1R,2R,4S,5R)-2-methyl-5-[[5-(trifluoromethyl)-2-pyridyl]oxy]-3-azabicyclo[2.2.1]heptan-3-yl]methanone], the Ki at human orexin 2 receptor is greater than 10000 nM; on rat orexin 1 receptor, 60 nM.
With `C[C@@H]1[C@H]2C[C@@H](Oc3ccc(C(F)(F)F)cn3)[C@H](C2)N1C(=O)c1cc(OCCBr)ccc1-n1nccn1` [Example 204, [5-(2-bromoethoxy)-2-(triazol-2-yl)phenyl]-[(1R,2R,4S,5R)-2-methyl-5-[[5-(trifluoromethyl)-2-pyridyl]oxy]-3-azabicyclo[2.2.1]heptan-3-yl]methanone], the results for the Ki on human orexin 2 receptor and at rat orexin 1 receptor were 236 nM and 71 nM, respectively.
The corresponding values for `C[C@@H]1[C@H]2C[C@@H](Oc3ccc(C(F)(F)F)cn3)[C@H](C2)N1C(=O)c1cc2ccccc2nc1OCCF` [Example 205, [2-(2-fluoroethoxy)-3-quinolyl]-[(1R,2R,4S,5R)-2-methyl-5-[[5-(trifluoromethyl)-2-pyridyl]oxy]-3-azabicyclo[2.2.1]heptan-3-yl]methanone] are 5400 nM and 22 nM.
As for `C[C@@H]1[C@H]2C[C@@H](Oc3ccc(C(F)(F)F)cn3)[C@H](C2)N1C(=O)c1c(OCCF)ccc2cccnc12` [Example 206, (7-(2-fluoroethoxy)quinolin-8-yl)((1S,3R,4R,6R)-3-methyl-6-((5-(trifluoromethyl)pyridin-2-yl)oxy)-2-azabicyclo[2.2.1]heptan-2-yl)methanone], the Ki on human orexin 2 receptor is 286 nM; at rat orexin 1 receptor, 7.4 nM.
Consider `C[C@@H]1[C@H]2C[C@@H](Oc3ccc(C(F)(F)F)c(F)n3)[C@H](C2)N1C(=O)c1ccccc1-c1ncccn1` [Example 219, (2-(pyrimidin-2-yl)phenyl)((1S,3R,4R,6R)-3-methyl-6-((6-fluoro-5-(trifluoromethyl)pyridin-2-yl)oxy)-2-azabicyclo[2.2.1]heptan-2-yl)methanone], for which the Ki worked out at 1010 nM on human orexin 2 receptor and 4 nM on rat orexin 1 receptor.
